{"source": "paper PMC4153739", "about": "(Biochemistry, 2012)", "tested_on": "four NR2 NMDA receptor subtypes (NR2A, NR2B, NR2C, NR2D with NR1-2b)", "type": "cell-based, rat", "note": "Non-standard residues stand in square brackets, D forms with d. Residues, ends and D or L forms follow the SMILES beside them. Gla = N[C@@H](CC(C(=O)O)C(=O)O)C(=O)O", "data": [{"compound": "CC(C)C[C@H](NC(=O)[C@H](CC(C(=O)O)C(=O)O)NC(=O)[C@H](CCCNC(=N)N)NC(=O)[C@H](C)NC(=O)[C@H](Cc1ccccc1)NC(=O)[C@H](CC(C(=O)O)C(=O)O)NC(=O)[C@H](CCC(N)=O)NC(=O)[C@H](CC(N)=O)NC(=O)[C@H](CC(C(=O)O)C(=O)O)NC(=O)[C@H](C)NC(=O)[C@H](CC(C)C)NC(=O)[C@H](CC(C(=O)O)C(=O)O)NC(=O)[C@H](CC(C(=O)O)C(=O)O)NC(=O)[C@H](CCC(=O)O)NC(=O)CN)C(=O)N[C@@H](C)C(=O)N[C@@H](CC(N)=O)C(N)=O", "note": "[ConRl-B[desKAO;N8Q9]] (H-GE[Gla][Gla]LA[Gla]NQ[Gla]FAR[Gla]LAN-NH2; N-terminus assumed)", "values": [{"measurement": "activity on the four NR2 NMDA receptor subtypes, in words", "result": "little or no activity"}]}]}
